According to US8415453B2, “Lung cancer-targeted peptides and applications thereof” (Academia Sinica, priority 2007, dated 2013):
Where no end group is shown, it is not given here. The star is where a group is joined. FITC = O=C1OC2(c3ccc(O)cc3Oc3cc(O)ccc32)c2ccc(NC(=S)*)cc21

Columns and labels:
A549 cells = assay: Peptide-binding assay with FITC-labeled peptide, immunofluorescent staining; type: cell-based, human
Description: (§1) To investigate whether the synthetic peptide and the selected phage clone competed for the same binding site, a peptide-competitive inhibition assay was performed by immunofluorescent staining. Targeting peptide TDSILRSYDWTY (SP5-2) [SEQ ID NO: 2] and control peptide (RLLDTNRPLLPY) [SEQ ID NO: 22] were synthesized and purified by reverse-phase high-performance liquid chromatography to >95% purity by Invitrogene, Inc. (CA, USA). Conjugation of these peptides with FITC or biotin was performed by adding FITC or biotin to the peptide NH2 terminus by the same company.

H23 cells = assay: as above; type: cell-based, human
Description: as §1

PC13 cells = assay: as above; type: cell-based, human
Description: as §1

H460 cells = assay: as above; type: cell-based, human
Description: as §1

CL1-5 cells [1] = assay: as above; type: cell-based, human
Description: as §1

CL1-5 cells [2] = assay: Peptide-competitive inhibition assay by immunofluorescent staining; type: cell-based, human
Description: as §1
Phages were mixed with different concentrations of synthetic peptides and incubated with cells at 4° C. for 1 h. The slides were further incubated with mouse anti-M13 monoclonal antibody (Amersham Biosciences, Uppsala, Sweden), followed by incubation with FITC-labeled goat anti-mouse antibody (Jackson ImmunoResearch). The slides were washed and mounted with mounting medium (Vector, Calif., USA). Then the slides were examined under a Leica Universal microscope. The images were merged by SimplePCI (C-IMAGING, PA, USA) software.

CL1-5-derived tumors = assay: In vivo tumor homing, phage titers recovered from tumor and organs; set-up: species or system SCID mice; settings: for effect of co-injected peptide on recovery of PC5-2 from tumor mass: co-injection of 100 μg peptide
Description: (§2) To investigate the targeting ability of PC5-2 in vivo, phages were injected into the tail vein of mice bearing CL1-5-derived tumors and recovered after perfusion. SCID mice were injected subcutaneously into the dorsolateral flank with 1×10^7 cancer cells. The mice bearing size-matched lung cancer-derived tumor (tumor sizes about 500 mm3) were injected with targeting phage or control phage through the tail vein. Eight minutes after injection, the mice were treated with diethyl ether to drive them into deep anesthesia. Then the mice were perfused with 50 ml PBS to wash unbound phage. The control organs (brain, heart, and lung) and tumor mass were removed, weighed, and washed three times with cold PBS-PI (protease inhibitor cocktail tablet; Roche, Germany). The organ and tumor samples were homogenized. Then, the phage bound to the tumor mass or control organs were rescued by adding 0.5 ml ER2738 bacterial for 30 minutes at 37° C. The eluted phage particles were titered on agar plates in the presence of 1 mg/L of IPTG/X-Gal. In peptide competitive inhibition experiments, the phages were co-injected with 100 μg of synthetic peptide. We also used the control peptide. The organs and tumor masses were fixed in Bouin's solution for 2 h. After fixation, the samples were embedded in paraffin blocks. The paraffin sections were deparaffinized, rehydrated and subjected to immunostaining using M13 monoclonal antibody, as mentioned above.

CL1-5 cells [3] = assay: Flow cytometry of phage-bound cells; type: cell-based, human; settings: peptide competitive inhibition
Description: Furthermore, to investigate the target molecule expressed on the cell surface of CL1-5, we measured PC5-2-bound cells using flow cytometry. Lung and other cancer cell lines were cultured overnight and then suspended in PBS containing 50 mM EDTA and blocked with blocking buffer at 4° C. for 30 minutes. The cells were washed 2 times with flow buffer (PBS containing 1% fetal bovine serum). The cells were incubated with phages or FITC-labeled peptide. For the peptide competitive inhibition assay, the phages were mixed with different concentrations of synthetic peptides and the mixture was incubated with the cells. After washing two times with cold flow buffer, the phage-bound cells were incubated with anti-M13 monoclonal antibodies at 4° C. for 1 h and then treated with FITC-conjugated goat anti-mouse IgG antibody. The cells were washed two times with cold flow buffer and then applied to a flow cytometer (Becton Dickinson).

NSCLC xenografts = assay: In vivo tissue distribution of phage by immunostaining; set-up: species or system SCID mice; settings: in vivo homing
Description: as §2, with “The paraffin sections were deparaffinized, rehydrated and subjected to immunostaining using M13 monoclonal antibody, as mentioned above.” left out

Substance	binding of FITC-labeled peptide to cells (A549 cells)	binding of FITC-labeled peptide to cells (H23 cells)	binding of FITC-labeled peptide to cells (PC13 cells)	binding of FITC-labeled peptide to cells (H460 cells)	binding of FITC-labeled peptide to cells (CL1-5 cells [1])	effect of synthetic peptide on binding of PC5-2 phage to CL1-5 cells (CL1-5 cells [2])	effect of co-injected peptide on recovery of PC5-2 from tumor mass (CL1-5-derived tumors)	peptide concentration able to inhibit the PC5-2 binding activity completely (CL1-5 cells [2]; CL1-5)	effect of peptide on phage bound to CL1-5 cells (CL1-5 cells [3])	inhibition of PC5-2 binding to tumor mass (CL1-5-derived tumors; co-injection of one hundred micrograms of peptide)	effect of peptide on targeting of PC5-2 to NSCLC xenograft (NSCLC xenografts)
FITC-labeled control peptide: control peptide RLLDTNRPLLPY with FITC at the NH2 terminus ({FITC}-RLLDTNRPLLPY)	no such binding activity	no such binding activity	no such binding activity	no such binding activity	no such binding activity						
RLLDTNRPLLPY [control peptide]						no such effect	no such inhibitory effect				
TDSILRSYDWTY [SP5-2]						inhibited	markedly inhibited	27 µg/mL	completely inhibited	92%	inhibited
